# Results from patent publication US20230302014A1, “USES OF GLUCOCORTICOID RECEPTOR (GR) ANTAGONIST AND ANDROGEN RECEPTOR (AR) DEGRADER COMBINATIONS” (ORIC Pharmaceuticals, Inc., priority 2020, published 2023).
# How the values were obtained:
# PSA = PSA AlphaLISA assay of cell supernatant (PSA secretion); format: cell-based, Human; settings: CSS media; for R1881-induced PSA secretion: CWR22PC, + 0.5 µM compound 1
# GR = molecular target: T1, GR (Homo sapiens, UniProt P04150); settings: prostate cancer models with GR upregulated, in response to glucocorticoids; Zhou et al. 2019; cited from earlier work
# T1 sequence (P04150 1-777): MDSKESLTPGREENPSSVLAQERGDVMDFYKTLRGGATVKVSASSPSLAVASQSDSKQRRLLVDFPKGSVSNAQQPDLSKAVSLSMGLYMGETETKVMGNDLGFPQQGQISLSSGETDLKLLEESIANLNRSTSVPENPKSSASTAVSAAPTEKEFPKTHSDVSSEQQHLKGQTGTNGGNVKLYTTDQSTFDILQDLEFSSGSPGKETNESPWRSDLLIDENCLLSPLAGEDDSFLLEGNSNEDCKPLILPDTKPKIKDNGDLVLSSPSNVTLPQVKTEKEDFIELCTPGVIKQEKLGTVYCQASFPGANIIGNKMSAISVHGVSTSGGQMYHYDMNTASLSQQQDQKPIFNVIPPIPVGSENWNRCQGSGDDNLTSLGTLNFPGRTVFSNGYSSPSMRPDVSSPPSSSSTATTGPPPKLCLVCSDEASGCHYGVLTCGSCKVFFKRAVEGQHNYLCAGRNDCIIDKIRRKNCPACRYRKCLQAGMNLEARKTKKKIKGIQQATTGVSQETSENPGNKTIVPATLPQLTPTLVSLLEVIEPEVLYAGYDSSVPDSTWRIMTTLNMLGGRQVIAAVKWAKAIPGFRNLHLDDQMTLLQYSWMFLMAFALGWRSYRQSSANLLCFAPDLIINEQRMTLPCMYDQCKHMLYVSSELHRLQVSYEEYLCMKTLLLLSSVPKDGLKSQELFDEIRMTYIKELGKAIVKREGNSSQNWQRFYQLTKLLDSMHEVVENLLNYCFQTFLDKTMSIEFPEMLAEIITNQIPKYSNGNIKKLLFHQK
# [1] = system: AR and/or GR target genes KLK4, KLF9, FKBP5, PER1, SGK1; experiment: Biomarker analysis by RT-qPCR, 48 hours; format: cell-based, Human; settings: CWR22PC and 22Rv1 cells
# Experimental: CWR22PC and 22RV1 cells were seeded at a density of 2 × 10^5 cells/well in 6-well plates in 2 mL of RPMI-1640 media supplemented with 10% charcoal-stripped serum (CSS). Cells were treated with 100 pM R1881, 30 nM dexamethasone, 0.5 µM compound 1, 1 µM of ARD1 or ARD2, or combinations thereof as indicated and maintained at 37° C. 48 hours later, media was removed, and cells were washed once with PBS and then harvested for mRNA analysis.
# (§1) Adherent cells or cell pellets harvested for mRNA analysis were first washed once with PBS and then resuspended in 600 µL of RLT lysis buffer (Qiagen Inc.) supplemented with 1% of betamercaptoethanol. RNA was extracted by QIAcube using the RNeasy Mini QIAcube kit (Qiagen#74116) according to manufacturer’s instructions. The extracted RNA samples were then quantified using a Nanodrop 8000 Spectrophotometer. RT-qPCR reactions were set up in triplicate using 3 µL of 3 ng/ µL of RNA in 7 µL of pre-mixed SensiFAST™ SYBR No-ROX One-Step Kit reagents (BIOLINE# BIO-98005). The RT-qPCR reactions were run on a Bio-Rad CFX384 Real-Time PCR System and data was plotted with GraphPad Prism 8 software.
# CWR22PC and 22Rv1 cells were seeded at a density of 2 × 10^5 cells/well in 6-well plates in 2 mL of RPMI-1640 media supplemented with 10% charcoal-stripped serum (CSS). […] 48 hours later, media was removed, and cells were washed once with PBS and then harvested for mRNA analysis.
# [2] = system: AR and GR target genes in CWR22PC cells; experiment: End of study (EOS) biomarker analysis by RT-qPCR; format: cell-based, Human; settings: CSS media, + 0.5 µM compound 1
# Experimental: (§2) CWR22PC cells were seeded at a density of 2 × 10^5 cells/well in 6-well plates (Corning# 3516) in 2 mL of RPMI-1640 media supplemented with 10% charcoal-stripped serum (CSS) in duplicate. 24 hours later, cells were treated with 100 pM R1881, 30 nM dexamethasone, 0.5 µM compound 1, 1 µM of ARD1 or ARD2, or combinations thereof as indicated. Fresh media containing the indicated treatment was replaced every 5-7 days. Cell supernatant was collected on Day 12 and 19 and stored at -80° C. for PSA AlphaLISA assay. Cell images were taken on Day 12 and 19 using Leica DMi8 microscope (LEICA MICROSYSTEMS, INC. IL) with a 10X magnification. Cells were then trypsinized and cell numbers in each treatment group were counted three times, average counts were plotted with GraphPad Prism 8. Cell pellets were washed once with 1XPBS and then lysed in 600 µL RLT RNA lysis buffer and stored at -80° C. RNA was extracted for end of study (EOS) biomarker analysis for which the detailed procedures are described in the section RNA Extraction and RT-qPCR analysis.
# as §1
# CWR22PC cells were seeded at a density of 2 × 10^5 cells/well in 6-well plates (Corning# 3516) in 2 mL of RPMI-1640 media supplemented with 10% charcoal-stripped serum (CSS) in duplicate. […] Cells were then trypsinized and cell numbers in each treatment group were counted three times, average counts were plotted with GraphPad Prism 8. […]
# CWR22PC cells = experiment: Cell growth (cell number) of prostate cancer cells under long-term treatment; format: cell-based, Human; settings: CSS media; for R1881-induced cell growth: CWR22PC, + 0.5 µM compound 1
# Experimental: as §2
# The impact of ARD1 and ARD2 on the growth of prostate cancer cells was explored. CWR22PC cells were plated in charcoal-stripped serum (CSS) media and treated with vehicle or 0.1 nM R1881 (synthetic AR ligand) without or with 1 µM of ARD1 or ARD2. Media with treatments were replaced every 5-7 days and cells were maintained at 37° C. for 22 days. Supernatant of each group was harvested at day 22 to measure PSA secretion by PSA AlphaLISA assays.
# as §2, with “24 hours later, cells were treated with 100 pM R1881, 30 nM dexamethasone, 0.5 µM compound 1, 1 µM of ARD1 or ARD2, or combinations thereof as indicated.” left out, “15” for “12”, “21” for “19”, “assay.” for “assay. Cell images were taken on Day 12 and 19 using Leica DMi8 microscope (LEICA MICROSYSTEMS, INC. IL) with a 10X magnification.”
# [3] = system: AR target genes KLK3, KLK4, NKX3.1, FKBP5; experiment: Target gene assay (RT-qPCR, R1881-induced AR target genes); format: cell-based, Human; settings: 100 pM R1881, 24 hours post treatment
# Experimental: (§3) 10,000 LNCaP and CWR22PC cells per well were plated in triplicate in poly-lysine coated 96-well plates (ThermoFisher#152039) in 200 µL of RPMI-1640 media supplemented with 10% charcoal-stripped serum. 24 hours later, cells were treated with 100 pM of R1881 and 8-point dilution for enzalutamide, ARD1 or ARD2 with concentrations ranging from 1 µM to 0.46 nM. After incubation at 37° C. for 24 hours, media was removed, and cells were washed once with PBS. 55 µL per well of iScript RT-qPCR sample preparation reagent (Bio-Rad #1708898) was added and incubated for 2 minutes before lysate was collected for mRNA analysis. RT-qPCR was set up in triplicate using 3 µL of lysate plus 7 µL of pre-mixed SensiFAST™ SYBR No-ROX One-Step Kit reagents (BIOLINE, Cat# BIO-98005) per reaction. The RT-qPCR reactions were run on a Bio-Rad CFX384 Real-Time PCR System and data was plotted with GraphPad Prism 8 software.
# as §3, with “15,000” for “10,000”, “24 hours later, cells were treated with 100 pM of R1881 and 8-point dilution for enzalutamide, ARD1 or ARD2 with concentrations ranging from 1 µM to 0.46 nM.” left out, “75” for “55”
# [4] = 19 days, 0.1 nM R1881 + 1 µM ARD1 or ARD2, + 30 nM dexamethasone
# [5] = 21 days, 0.1 nM R1881 + 1 µM ARV-110, + 30 nM dexamethasone
smiles,measurement,setting,value
CC(C)N(C)c1ccc([C@H]2C[C@@]3(C)[C@@H](CC[C@@]3(O)C#CC(C)(C)C)[C@@H]3CCC4=CC(=O)CC[C@@H]4[C@H]32)cc1 [Compound 1],R1881-induced PSA secretion,PSA; [4],fully reverses
same,R1881-induced PSA secretion,PSA; [5],fully reverses
same,sensitivity to enzalutamide treatment,GR,restores sensitivity to enzalutamide treatment
same,DEX-induced GR and AR target gene expression,"[1]; 0.5 µM compound 1 in the presence of 1 µM ARD1 or ARD2, 0.1 nM R1881, 30 nM DEX",fully reverses
same,DEX-induced GR and AR target gene expression,"[1]; 0.5 µM compound 1 in the presence of 1 µM ARV-110, 0.1 nM R1881, 30 nM DEX",fully reverses
same,R1881-induced target gene (biomarker) expression,"[2]; day 19 EOS, 0.1 nM R1881 + 1 µM ARD1 or ARD2, + 30 nM dexamethasone",fully reverses
same,R1881-induced target gene (biomarker) expression,"[2]; day 21 EOS, 0.1 nM R1881 + 1 µM ARV-110, + 30 nM dexamethasone",fully reverses
same,R1881-induced cell growth,CWR22PC cells; [4],fully reverses
same,R1881-induced cell growth,CWR22PC cells; [5],fully reverses
C[C@]1(O)CC[C@H]2[C@@H]3CCC4=CC(=O)CCC4=C3C=C[C@@]21C [Compound R1881],PSA secretion,"PSA; CWR22PC cells, 0.1 nM R1881 without or with 1 µM ARD1 or ARD2, day 22",promotes
same,CWR22PC cell growth,"CWR22PC cells; 0.1 nM R1881 without or with 1 µM ARD1 or ARD2, 22 days",promotes
"CNC(=O)c1ccc(N2C(=S)N(c3ccc(C#N)c(C(F)(F)F)c3)C(=O)C2(C)C)cc1F [Enzalutamide, enzalutamide]",AR target gene FKBP5 induced by R1881,[3]; CWR22PC cells,inhibit
same,AR target gene KLK3 induced by R1881,[3]; CWR22PC cells,inhibit
same,AR target gene KLK4 induced by R1881,[3]; CWR22PC cells,inhibit
same,AR target gene NKX3.1 induced by R1881,[3]; CWR22PC cells,inhibit
same,AR target gene FKBP5 induced by R1881,[3]; LNCaP cells,inhibit
same,AR target gene KLK3 induced by R1881,[3]; LNCaP cells,inhibit
same,AR target gene KLK4 induced by R1881,[3]; LNCaP cells,inhibit
same,AR target gene NKX3.1 induced by R1881,[3]; LNCaP cells,inhibit
